Values after ≈ are worked out from the molar mass of the structure shown.
How the values were obtained:
Assay type in all cases: functional
Staphylococcus aureus [1] = assay: Antimicrobial activity against oxacillin-susceptible Staphylococcus aureus assessed as inhibition of microbial growth at 0.5 ug/ml by CLSI method
Staphylococcus aureus [2] = assay: Antimicrobial activity against oxacillin-susceptible coagulase-negative Staphylococcus aureus assessed as inhibition of microbial growth at 2 ug/ml by CLSI method
Staphylococcus [3] = assay: Antimicrobial activity against linezolid-susceptible coagulase-negative Staphylococcus assessed as percent susceptible strain by CLSI method
Staphylococcus aureus [4] = assay: Antimicrobial activity against oxacillin-resistant Staphylococcus aureus assessed as inhibition of microbial growth at 4 ug/ml by CLSI method
Staphylococcus aureus [5] = assay: Antimicrobial activity against oxacillin-susceptible Staphylococcus aureus assessed as inhibition of microbial growth at 4 ug/ml by CLSI method
Staphylococcus aureus [6] = assay: Antimicrobial activity against oxacillin-resistant Staphylococcus aureus assessed as inhibition of microbial growth at 1 ug/ml by CLSI method
Staphylococcus aureus [7] = assay: Antimicrobial activity against oxacillin-resistant coagulase-negative Staphylococcus aureus assessed as inhibition of microbial growth at 1 ug/ml by CLSI method
Staphylococcus aureus [8] = assay: Antimicrobial activity against oxacillin-resistant Staphylococcus aureus by CLSI method
Staphylococcus aureus [9] = assay: Antimicrobial activity against linezolid-susceptible Staphylococcus aureus assessed as inhibition of microbial growth at 1 ug/ml by CLSI method
Staphylococcus aureus [10] = assay: Antimicrobial activity against linezolid-resistant Staphylococcus aureus assessed as inhibition of microbial growth at 16 ug/ml by CLSI method
Staphylococcus aureus [11] = assay: Antimicrobial activity against oxacillin-susceptible Staphylococcus aureus by CLSI method
Staphylococcus [12] = assay: Antimicrobial activity against linezolid-resistant coagulase-negative Staphylococcus assessed as inhibition of microbial growth at 256 ug/ml by CLSI method
Staphylococcus aureus [13] = assay: Antimicrobial activity against oxacillin-resistant coagulase-negative Staphylococcus aureus assessed as inhibition of microbial growth at 2 ug/ml by CLSI method
Staphylococcus aureus [14] = assay: Antimicrobial activity against oxacillin-resistant Staphylococcus aureus assessed as inhibition of microbial growth at 2 ug/ml by CLSI method
Staphylococcus aureus [15] = assay: Antimicrobial activity against oxacillin-susceptible coagulase-negative Staphylococcus aureus assessed as inhibition of microbial growth at 1 ug/ml by CLSI method
Staphylococcus aureus [16] = assay: Antimicrobial activity against linezolid-susceptible Staphylococcus aureus assessed as inhibition of microbial growth at =< 0.25 ug/ml by CLSI method
Staphylococcus aureus [17] = assay: Antimicrobial activity against oxacillin-susceptible Staphylococcus aureus assessed as percent susceptible strain by CLSI method
Staphylococcus [18] = assay: Antimicrobial activity against linezolid-resistant coagulase-negative Staphylococcus assessed as inhibition of microbial growth at 128 ug/ml by CLSI method
Staphylococcus [19] = assay: Antimicrobial activity against oxacillin-resistant coagulase-negative Staphylococcus aureus by CLSI method
Staphylococcus aureus [20] = assay: Antimicrobial activity against oxacillin-susceptible Staphylococcus aureus assessed as inhibition of microbial growth at 1 ug/ml by CLSI method
Staphylococcus [21] = assay: Antimicrobial activity against oxacillin-susceptible coagulase-negative Staphylococcus aureus by CLSI method
Staphylococcus aureus [22] = assay: Antimicrobial activity against oxacillin-resistant Staphylococcus aureus assessed as inhibition of microbial growth at 0.5 ug/ml by CLSI method
Staphylococcus [23] = assay: Antimicrobial activity against linezolid-resistant coagulase-negative Staphylococcus by CLSI method
Staphylococcus aureus [24] = assay: Antimicrobial activity against oxacillin-resistant coagulase-negative Staphylococcus aureus assessed as inhibition of microbial growth at 4 ug/ml by CLSI method
Staphylococcus aureus [25] = assay: Antimicrobial activity against linezolid-resistant Staphylococcus aureus assessed as percent susceptible strain by CLSI method
Staphylococcus aureus [26] = assay: Antimicrobial activity against linezolid-susceptible Staphylococcus aureus assessed as percent susceptible strain by CLSI method
Staphylococcus [27] = assay: Antimicrobial activity against linezolid-resistant coagulase-negative Staphylococcus assessed as inhibition of microbial growth at 32 ug/ml by CLSI method
Staphylococcus [28] = assay: Antimicrobial activity against linezolid-susceptible coagulase-negative Staphylococcus assessed as inhibition of microbial growth at =< 0.25 ug/ml by CLSI method
Staphylococcus aureus [29] = assay: Antimicrobial activity against linezolid-susceptible Staphylococcus aureus by CLSI method
Staphylococcus aureus [30] = assay: Antimicrobial activity against linezolid-susceptible Staphylococcus aureus assessed as inhibition of microbial growth at 4 ug/ml by CLSI method
Staphylococcus [31] = assay: Antimicrobial activity against linezolid-susceptible coagulase-negative Staphylococcus assessed as inhibition of microbial growth at 2 ug/ml by CLSI method
Staphylococcus [32] = assay: Antimicrobial activity against linezolid-resistant coagulase-negative Staphylococcus assessed as inhibition of microbial growth at 16 ug/ml by CLSI method
Staphylococcus aureus [33] = assay: Antimicrobial activity against linezolid-susceptible Staphylococcus aureus assessed as inhibition of microbial growth at 2 ug/ml by CLSI method
Staphylococcus aureus [34] = assay: Antimicrobial activity against methicillin-resistant Staphylococcus aureus by CLSI method
Staphylococcus aureus [35] = assay: Antimicrobial activity against linezolid-resistant Staphylococcus aureus by CLSI method
Staphylococcus [36] = assay: Antimicrobial activity against linezolid-susceptible coagulase-negative Staphylococcus assessed as inhibition of microbial growth at 0.5 ug/ml by CLSI method
Staphylococcus [37] = assay: Antimicrobial activity against linezolid-resistant coagulase-negative Staphylococcus assessed as inhibition of microbial growth at 64 ug/ml by CLSI method
Staphylococcus aureus [38] = assay: Antimicrobial activity against oxacillin-susceptible coagulase-negative Staphylococcus aureus assessed as inhibition of microbial growth at 0.5 ug/ml by CLSI method
Staphylococcus [39] = assay: Antimicrobial activity against linezolid-susceptible coagulase-negative Staphylococcus by CLSI method
Staphylococcus aureus [40] = assay: Antimicrobial activity against linezolid-susceptible Staphylococcus aureus assessed as inhibition of microbial growth at 0.5 ug/ml by CLSI method
Staphylococcus aureus [41] = assay: Antimicrobial activity against oxacillin-susceptible coagulase-negative Staphylococcus aureus assessed as inhibition of microbial growth at =< 0.25 ug/ml by CLSI method
Staphylococcus aureus [42] = assay: Antimicrobial activity against oxacillin-susceptible Staphylococcus aureus assessed as inhibition of microbial growth at =< 0.25 ug/ml by CLSI method
Staphylococcus aureus [43] = assay: Antimicrobial activity against oxacillin-resistant Staphylococcus aureus assessed as inhibition of microbial growth at =< 0.25 ug/ml by CLSI method
Staphylococcus [44] = assay: Antimicrobial activity against linezolid-susceptible coagulase-negative Staphylococcus assessed as inhibition of microbial growth at 1 ug/ml by CLSI method
Staphylococcus [45] = assay: Antimicrobial activity against linezolid-susceptible coagulase-negative Staphylococcus assessed as inhibition of microbial growth at 4 ug/ml by CLSI method
Staphylococcus aureus [46] = assay: Antimicrobial activity against oxacillin-susceptible Staphylococcus aureus assessed as inhibition of microbial growth at 2 ug/ml by CLSI method
Staphylococcus [47] = assay: Antimicrobial activity against linezolid-resistant coagulase-negative Staphylococcus assessed as percent susceptible strain by CLSI method
[48] = Antimicrobial activity against oxacillin-susceptible coagulase-negative Staphylococcus aureus assessed as percent susceptible strain by CLSI method

CC(=O)NC[C@H]1CN(c2ccc(N3CCOCC3)c(F)c2)C(=O)O1 [LINEZOLID]
inhibition at 0.5 µg/mL (Staphylococcus aureus [1]): 0.5% | inhibition at 2 µg/mL (Staphylococcus aureus [2]): 100% | Activity (Staphylococcus [3]): 100% | inhibition at 4 µg/mL (Staphylococcus aureus [4]): 100% | inhibition at 4 µg/mL (Staphylococcus aureus [5]): 100% | inhibition at 1 µg/mL (Staphylococcus aureus [6]): 40.5% | inhibition at 1 µg/mL (Staphylococcus aureus [7]): 81.6% | MIC50 (Staphylococcus aureus [8]): 2 µg/mL (≈ 5.93 µM) | MIC90 (Staphylococcus aureus [8]): 4 µg/mL (≈ 11.9 µM) | inhibition at 1 µg/mL (Staphylococcus aureus [9]): 45.2% | inhibition at 16 µg/mL (Staphylococcus aureus [10]): 100% | MIC50 (Staphylococcus aureus [11]): 1 µg/mL (≈ 2.96 µM) | MIC90 (Staphylococcus aureus [11]): 2 µg/mL (≈ 5.93 µM) | inhibition at 256 µg/mL (Staphylococcus [12]): 100% | inhibition at 2 µg/mL (Staphylococcus aureus [13]): 98.7% | inhibition at 2 µg/mL (Staphylococcus aureus [14]): 84.6% | inhibition at 1 µg/mL (Staphylococcus aureus [15]): 75.6% | inhibition (INH) (Staphylococcus aureus [16]): 1.3% | Activity (Staphylococcus aureus [17]): 100% | inhibition at 128 µg/mL (Staphylococcus [18]): 80% | MIC50 (Staphylococcus [19]): 1 µg/mL (≈ 2.96 µM) | MIC90 (Staphylococcus [19]): 2 µg/mL (≈ 5.93 µM) | inhibition at 1 µg/mL (Staphylococcus aureus [20]): 51% | MIC50 (Staphylococcus [21]): 1 µg/mL (≈ 2.96 µM) | MIC90 (Staphylococcus [21]): 2 µg/mL (≈ 5.93 µM) | inhibition at 0.5 µg/mL (Staphylococcus aureus [22]): 4% | MIC50 (Staphylococcus [23]): 16 µg/mL (≈ 47.4 µM) | inhibition at 4 µg/mL (Staphylococcus aureus [24]): 100% | Activity (Staphylococcus aureus [25]): 0% | Activity (Staphylococcus aureus [26]): 100% | inhibition at 32 µg/mL (Staphylococcus [27]): 60% | inhibition (INH) (Staphylococcus [28]): 3% | MIC50 (Staphylococcus aureus [29]): 2 µg/mL (≈ 5.93 µM) | MIC90 (Staphylococcus aureus [29]): 2 µg/mL (≈ 5.93 µM) | inhibition at 4 µg/mL (Staphylococcus aureus [30]): 100% | inhibition at 2 µg/mL (Staphylococcus [31]): 99% | inhibition at 16 µg/mL (Staphylococcus [32]): 60% | inhibition at 2 µg/mL (Staphylococcus aureus [33]): 91.1% | MIC (Staphylococcus aureus [34]): 16 µg/mL (≈ 47.4 µM) | MIC50 (Staphylococcus aureus [35]): 16 µg/mL (≈ 47.4 µM) | inhibition at 0.5 µg/mL (Staphylococcus [36]): 8% | inhibition at 64 µg/mL (Staphylococcus [37]): 80% | inhibition at 0.5 µg/mL (Staphylococcus aureus [38]): 9.8% | MIC50 (Staphylococcus [39]): 1 µg/mL (≈ 2.96 µM) | MIC90 (Staphylococcus [39]): 2 µg/mL (≈ 5.93 µM) | inhibition at 0.5 µg/mL (Staphylococcus aureus [40]): 2.4% | inhibition (INH) (Staphylococcus aureus [41]): 4.9% | inhibition (INH) (Staphylococcus aureus [42]): 0.5% | inhibition (INH) (Staphylococcus aureus [43]): 2% | inhibition at 1 µg/mL (Staphylococcus [44]): 80.4% | inhibition at 4 µg/mL (Staphylococcus [45]): 100% | inhibition at 2 µg/mL (Staphylococcus aureus [46]): 99% | Activity (Staphylococcus [47]): 0% | Activity [48]: 100%

From ChEMBL document CHEMBL1255438, “Comparative activities of TR-700 (torezolid) against staphylococcal blood isolates collected in Spain” (2010)
